Data published in paper PMC4579270, “Identification and Characterization of an Irreversible Inhibitor of CDK2” (Chemistry & Biology, 2015).
Read-outs that look alike come from different tables or passages of the source.

How the values were obtained:
Test in all cases: Dundee kinase screen re-test (standard format and 4 hour pre-incubation)
Assay type in all cases: biochemical
GSK3b = GSK3b (Homo sapiens, UniProt P49841)
Experimental: (§1) Prior to determining its cellular activity, we carried out a screen to assess its selectivity against a panel of 131 protein kinases under conditions that would not distinguish between a reversible or irreversible mode of action. […] These 13 kinases and 29 additional kinases, selected for their known sensitivity to other inhibitors within the purine series, were then tested in a modified screening format in which the assay was repeated following a 4-hr pre-incubation (Table S3B). […] However, conformational flexibility around the active site may promote such an interaction with a residue from another part of the structure ([Martin et al., 2012]).
(§2) Table S3, Related to Figure 4. NCL-0006300 protein kinase selectivity. […]
(§3) Dundee protein kinase screen (Bain et al., 2007). […]
(§4) (B) Selected kinases were re-tested in the Dundee kinase screen against NU6300 at a single concentration of 0.5 µM both in the standard assay format and following a 4 hour pre-incubation in the presence of NU6300. Kinases which have very low activity after the 4 hour incubation so that results might not be wholly reliable are boxed in salmon. Kinases where the activity after a 4 hour pre-incubation is < 50% that in the standard assay format are highlighted in red.

MLK1 = MLK1 (Homo sapiens, UniProt P80192); conditions: MLK1, 0.5µM
Chain of MLK1 (P80192 whole entry): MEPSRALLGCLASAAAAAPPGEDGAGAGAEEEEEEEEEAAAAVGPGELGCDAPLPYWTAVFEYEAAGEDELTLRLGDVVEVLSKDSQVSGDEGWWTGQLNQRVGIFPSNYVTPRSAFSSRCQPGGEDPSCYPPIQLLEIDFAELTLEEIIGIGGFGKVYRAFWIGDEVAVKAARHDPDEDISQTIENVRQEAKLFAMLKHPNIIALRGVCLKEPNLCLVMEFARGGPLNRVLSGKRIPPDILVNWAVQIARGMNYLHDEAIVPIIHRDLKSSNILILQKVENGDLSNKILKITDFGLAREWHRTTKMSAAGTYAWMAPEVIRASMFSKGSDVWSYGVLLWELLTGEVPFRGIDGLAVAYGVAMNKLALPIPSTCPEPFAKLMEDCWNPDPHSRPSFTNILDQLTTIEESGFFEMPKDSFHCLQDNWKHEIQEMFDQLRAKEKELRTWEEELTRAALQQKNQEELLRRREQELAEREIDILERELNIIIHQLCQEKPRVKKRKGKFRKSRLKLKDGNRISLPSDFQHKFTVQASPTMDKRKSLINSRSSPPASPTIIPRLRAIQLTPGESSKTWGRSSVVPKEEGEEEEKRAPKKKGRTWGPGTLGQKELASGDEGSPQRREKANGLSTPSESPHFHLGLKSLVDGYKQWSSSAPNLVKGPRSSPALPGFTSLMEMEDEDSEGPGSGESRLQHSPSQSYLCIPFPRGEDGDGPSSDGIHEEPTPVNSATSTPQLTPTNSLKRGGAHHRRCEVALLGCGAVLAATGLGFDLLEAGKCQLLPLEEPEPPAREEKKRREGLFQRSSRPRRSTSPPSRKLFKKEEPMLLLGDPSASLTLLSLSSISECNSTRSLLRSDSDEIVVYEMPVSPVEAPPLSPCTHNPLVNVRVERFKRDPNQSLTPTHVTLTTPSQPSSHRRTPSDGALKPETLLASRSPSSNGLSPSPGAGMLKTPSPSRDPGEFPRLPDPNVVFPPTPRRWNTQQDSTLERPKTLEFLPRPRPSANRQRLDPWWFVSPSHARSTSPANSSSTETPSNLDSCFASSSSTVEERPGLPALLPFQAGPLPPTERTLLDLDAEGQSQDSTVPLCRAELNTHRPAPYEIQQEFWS
Experimental: as §1, §2, §3, §4

Aurora A = molecular target: T1, Aurora A (Homo sapiens, UniProt O14965)
T1 sequence (O14965 1-403): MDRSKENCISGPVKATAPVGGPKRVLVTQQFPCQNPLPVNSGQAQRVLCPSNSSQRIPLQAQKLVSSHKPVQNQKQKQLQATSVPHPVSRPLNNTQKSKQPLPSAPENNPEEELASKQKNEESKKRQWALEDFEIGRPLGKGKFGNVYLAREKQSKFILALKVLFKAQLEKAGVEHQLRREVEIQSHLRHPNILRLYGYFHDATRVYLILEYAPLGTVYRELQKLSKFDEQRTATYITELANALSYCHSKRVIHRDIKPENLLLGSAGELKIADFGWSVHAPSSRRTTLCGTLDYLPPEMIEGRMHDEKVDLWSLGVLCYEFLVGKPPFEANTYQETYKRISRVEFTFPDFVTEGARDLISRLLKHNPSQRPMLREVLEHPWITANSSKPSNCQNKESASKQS
Experimental: as §1
(§5) Table S3, Related to Figure 4. NCL-0006300 protein kinase selectivity. (A) NU6300 was tested at a single concentration of 1µM against 131 protein kinases present in a Dundee protein kinase screen (Bain et al., 2007). Values given are % activity remaining and are the average of duplicate measurements: 0-25% (red), 26-50% (yellow), 51-80% (black) and above 81% (green). The kinase domain sequences (as defined by UniProt) of […]
(§6) have a lysine residue at a position close to CDK2 Lys88 or Lys89. However, in the structure of tyrosine-protein kinase BTK (PDB ID: 3GEN) the residue equivalent to CDK2 Asp86 is Cys481 and therefore there is the potential for a covalent adduct to be formed through this side chain. Ephrin type-B receptor 3 (UniProt entry P54753) also encodes a cysteine residue (Cys717) that by sequence alignment would be predicted to be close to the CDK2 lysine pair. (B) Selected kinases were re-tested in the Dundee kinase screen against NU6300 at a single concentration of 0.5 µM both in the standard assay format and following a 4 hour pre-incubation in the presence of NU6300. Kinases which have very low activity after the 4 hour incubation so that results might not be wholly reliable are boxed in salmon. Kinases where the activity after a 4 hour pre-incubation is < 50% that in the standard assay format are highlighted in red.

MARK1 = MARK1 (Homo sapiens, UniProt Q9P0L2); conditions: MARK1, 0.5µM
Chain of MARK1 (Q9P0L2 whole entry): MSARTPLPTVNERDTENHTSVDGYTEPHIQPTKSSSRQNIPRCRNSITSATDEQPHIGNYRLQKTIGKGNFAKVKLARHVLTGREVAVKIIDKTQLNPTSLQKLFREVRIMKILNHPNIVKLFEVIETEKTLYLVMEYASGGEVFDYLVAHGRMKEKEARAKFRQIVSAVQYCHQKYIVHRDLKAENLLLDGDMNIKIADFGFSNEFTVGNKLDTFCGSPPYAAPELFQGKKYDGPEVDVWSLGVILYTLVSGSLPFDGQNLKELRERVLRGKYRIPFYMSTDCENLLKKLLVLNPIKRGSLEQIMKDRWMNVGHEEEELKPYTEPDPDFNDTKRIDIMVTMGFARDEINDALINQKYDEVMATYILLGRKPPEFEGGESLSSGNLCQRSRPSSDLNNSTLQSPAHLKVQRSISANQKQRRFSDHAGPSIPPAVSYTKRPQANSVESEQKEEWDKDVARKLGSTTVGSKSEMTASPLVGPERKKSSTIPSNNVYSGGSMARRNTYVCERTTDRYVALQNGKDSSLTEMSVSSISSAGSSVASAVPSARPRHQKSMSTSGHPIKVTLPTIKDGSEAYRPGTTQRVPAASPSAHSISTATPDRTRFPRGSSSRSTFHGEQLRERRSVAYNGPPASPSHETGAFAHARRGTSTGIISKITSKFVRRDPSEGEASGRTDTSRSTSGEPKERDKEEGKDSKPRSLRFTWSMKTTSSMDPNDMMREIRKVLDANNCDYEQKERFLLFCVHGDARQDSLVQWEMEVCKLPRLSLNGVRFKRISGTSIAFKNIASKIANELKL
Experimental: as §1, §5, §6

PAK5 = PAK5 (Homo sapiens, UniProt Q9P286); conditions: PAK5, 0.5µM
Chain of PAK5 (Q9P286 whole entry): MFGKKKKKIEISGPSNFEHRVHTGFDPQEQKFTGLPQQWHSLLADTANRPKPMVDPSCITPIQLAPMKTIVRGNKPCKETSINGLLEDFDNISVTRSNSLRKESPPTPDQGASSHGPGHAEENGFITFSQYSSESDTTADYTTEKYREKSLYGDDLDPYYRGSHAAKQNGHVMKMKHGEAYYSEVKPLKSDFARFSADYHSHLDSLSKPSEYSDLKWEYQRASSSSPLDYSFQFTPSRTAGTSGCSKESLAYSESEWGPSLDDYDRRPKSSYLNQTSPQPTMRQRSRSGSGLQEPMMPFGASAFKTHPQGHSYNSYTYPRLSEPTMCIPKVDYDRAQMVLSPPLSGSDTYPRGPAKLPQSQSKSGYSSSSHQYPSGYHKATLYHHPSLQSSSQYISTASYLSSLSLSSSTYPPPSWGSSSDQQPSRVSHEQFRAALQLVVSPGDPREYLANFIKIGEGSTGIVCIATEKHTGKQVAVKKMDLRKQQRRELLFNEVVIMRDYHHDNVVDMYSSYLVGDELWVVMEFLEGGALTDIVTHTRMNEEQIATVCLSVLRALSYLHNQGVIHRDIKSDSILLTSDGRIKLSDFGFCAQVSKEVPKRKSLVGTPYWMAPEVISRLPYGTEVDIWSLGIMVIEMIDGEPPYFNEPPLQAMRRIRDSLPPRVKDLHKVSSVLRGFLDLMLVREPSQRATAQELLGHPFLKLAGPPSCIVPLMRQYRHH
Experimental: as §1, §5, §6

[1] = 4hr RT preincubation, read-out: %Remaining activity at 0.5µM NU6300 - 4hr RT preincubation
[2] = usual format, read-out: %Remaining activity at 0.5µM NU6300 - Usual assay format

Chain of GSK3b (P49841 whole entry): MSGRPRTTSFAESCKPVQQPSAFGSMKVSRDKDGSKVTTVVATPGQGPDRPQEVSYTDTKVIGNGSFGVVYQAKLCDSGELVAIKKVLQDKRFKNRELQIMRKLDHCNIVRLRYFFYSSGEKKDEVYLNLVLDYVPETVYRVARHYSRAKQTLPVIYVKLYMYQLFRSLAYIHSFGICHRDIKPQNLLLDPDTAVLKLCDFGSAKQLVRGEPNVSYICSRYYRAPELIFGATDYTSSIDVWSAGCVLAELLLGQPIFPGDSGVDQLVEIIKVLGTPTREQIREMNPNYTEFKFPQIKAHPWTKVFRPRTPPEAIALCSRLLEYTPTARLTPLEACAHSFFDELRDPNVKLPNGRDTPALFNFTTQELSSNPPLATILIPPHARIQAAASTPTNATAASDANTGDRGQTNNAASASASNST

SMILES: C=CS(=O)(=O)c1ccc(Nc2nc(OCC3CCCCC3)c3nc[nH]c3n2)cc1 [NU6300, 6-(cyclohexylmethoxy)-N-(4-(vinylsulfonyl)phenyl)-9H-purin-2-amine]
- remaining activity at 0.5 µM (GSK3b; [1]): 81%
- remaining activity at 0.5 µM (GSK3b; [2]): 80%
- remaining activity at 0.5 µM (MLK1; [1]): 29%
- remaining activity at 0.5 µM (MLK1; [2]): 4%
- remaining activity at 0.5 µM (Aurora A; [1]): 6%
- remaining activity at 0.5 µM (Aurora A; [2]): 26%
- additional loss of activity after pre-incubation (Aurora A; 4-hr pre-incubation vs usual format, 0.5 µM): > 50%
- remaining activity at 0.5 µM (MARK1; [1]): 38%
- remaining activity at 0.5 µM (MARK1; [2]): 37%
- remaining activity at 0.5 µM (PAK5; [1]): 53%
- remaining activity at 0.5 µM (PAK5; [2]): 76%
